Literature values in patent US9241502B2, “Animal feed compositions capable of reducing the incidence of fescue toxicosis in mammals” (priority 2005, dated 2016).

System: lactating dairy cattle
Details: as a single ingredient

In the case of Vitamin E, the “effectiveness against fescue toxicosis” value is listed as “not found to be effective”.
